The values that follow are results of earlier work, collected in patent publication US9119409B2, “Water soluble nutritional supplement for ruminants” (priority 2013, dated 2015).

Each structure is given as a SMILES string. Where two headings read alike, the source gives them in different places.

`O=C([O-])[O-].[Ca+2]` [calcium carbonate]: the bioavailability entry runs as follows: (at a pH greater than 4) “less than 1%”; (at a pH of 1.5) “around 75%”.
